The results in this text go back to patent US20070059788A1, “Method and apparatus for electrically detecting an adverse effect of a toxic substance on procaryotic cells” (priority 2005, published 2007).

What all share (assay type): cell-based
Assay [1] has as its system E. coli BL21 cells. Briefly: colony counting of the cells-immobilized chip. On the procedure:
(§1) The optical detection method was performed using a Baclight™ Bacterial Membrane Potential Kit (commercially available from by Molecular Probes Inc., U.S.A.) for verification.

Assay [2] relates to E. coli BL21 cells. As to the kind of experiment: optical detection of cell membrane potential (Baclight Bacterial Membrane Potential Kit). On the procedure:
as §1

Assay [3] relates to E. coli BL21 cells. As to the kind of experiment: impedance (E′, E″) measurement of cells immobilized on an interdigit electrode chip.
Method: After a suspension of E. coli BL21 cells (1×10^10 ells) was mixed with 1 ml of 1.5% agarose, 1 ul of the resulting mixture was laid and immobilized on the surface of a positive dielectrophoresis (“DEP”) 0 chip.
Subsequently, the cells-immobilized chip was soaked in 10 ml of 1 μM KCl solution and its initial dielectric permittivity (E′) and dielectric losses (E″) were measured. […] The chip was then taken out of the 10 ml of 1 μM KCl solution and washed with 1 μM KCl solution three times. After soaking the chip in 10 ml of 1 μM KCl solution, dielectric permittivity (E′) and dielectric losses (E″) were measured.
Control 2 is a case of treating only 1 μM KCl solution to the chip immobilized with E. coli cells, which represents the noise of prokaryotic cells themselves that varies with the passage of time.
In FIGS. 2A to 2C, Line b represents an initial impedance value measured after the cell immobilization, and Line a represents an impedance value measured after treating with a toxic substance or 1 μM KCl solution.

As for `CCO` [ethanol], in the assay on E. coli BL21 cells [1] (20% ethanol), the “adverse effect by colony counting” value is “difficult to measure an adverse effect”. Moreover, the “reduction in the cell membrane potential measured by the optical method” value in the assay on E. coli BL21 cells [2] (20% ethanol, compared with untreated control (FIG. 6)) was “almost nothing”. Moreover, the “reduction in the cell membrane's impedance (E′) signal” value in the assay on E. coli BL21 cells [3] (20% ethanol (FIG. 2C)) is given as “about 36%”.

As for “carbonyl cyanide m-chloropheoxyhydrazone [CCCP]”, the “adverse effect by colony counting” value in the assay on E. coli BL21 cells [1] (5 μM CCCP versus untreated control (FIG. 5A)) is reported as “difficult to measure an adverse effect”. Besides, the “reduction of cell membrane potential” value with E. coli BL21 cells [2] (5 μM CCCP, compared with untreated control (FIG. 5B)) is on record as 10%. Besides, the “reduction of impedance signal (E″) of the cell membrane” value with E. coli BL21 cells [3] (5 μM CCCP, compared with the untreated control (FIG. 4C)) is recorded as “about 32%”. Moreover, in the assay with E. coli BL21 cells [3] (5 μM CCCP, same method as Example 1), the “change in E′ and E″ signals over the initial impedance value” is “significant reduction”.
